Patent publication US4908441A, “Deoxyadenosine compounds and methods of making and using the same” (Warner-Lambert Company, priority 1988, dated 1990)
≈ marks a conversion by molar mass, not a printed value.

How the values were obtained:
[1] = mammals and Phase 1 clinical trial in patients; Carson et al. 1984; cited from earlier work
water solubility = format: physicochemical
Colon 08 = assay: tumor growth delay assay, Colon 08; format: in vivo, mouse (CD2F1 hybrid); parameters: key to Rating: Tx: Toxic; ++++: High Activity; +++: Marked Activity; ++: Moderate Activity; +: Slight Activity; -: Inactive; UT: Unsatisfactory Test; details: 15 mg/kg (dose of greatest activity), IP
Protocol: (§1) A test protocol to show activity of the compounds of the present invention against solid tumors was that described below, for example, in inhibiting the growth of colon tumors.
(§2) The tumor growth delay assay assesses the antitumor activity of a test agent by measurement of the treatment-induced delay of tumor growth.
(§3) Test animals were CD2F1 hybrid mice derived from the inbred strain of tumor origin. After the required mice were randomized they received 30-50 mg subcutaneous implants of either colon 36 or colon 8 by trocar on Day 0. Samples of each donor tumor were incubated in thioglycolate media as a check for contamination of the tumor material. After tumor inoculation mice were rerandomized and distributed at 10 mice per treatment group (20 for control).
(§4) Drug treatment was initiated when tumors reached measurement in two dimensions by the formula:
(§5) tumor weight (mg)=(a+b^2)
(§6) where a and b are the tumor length and width, respectively. Drug, suspended in methyl-cellulose, was administered intraperitoneally Q4HX3 for nine consecutive days in a range of toxic to nontoxic doses. Tumor-bearing control groups were injected with methyl-cellulose. Animal survival was monitored daily. Tumors were measured twice weekly and animal weights recorded on a weekly basis. All dead mice were autopsied to determine the cause of death (drug or tumor). Any mouse bearing a tumor larger than the smallest lethal control tumor for two consecutive measurements was sacrificed, provided that greater than 25 days had elapsed since last treatment. Any tumor-free mouse was retained long enough so that a single surviving tumor cell at last treatment could grow to an unmistakable subcutaneous tumor.
(§7) T/C was calculated based on the difference in days required for the treated (T) and control (C) groups to reach an evaluation size of 1000 mg. Gross and net logs of cell kill were determined based on standard methodologies. The degree of activity or rating is a function of cell kill. Activity is defined in accordance with the standard methodologies as follows: […]

Colon 36 = assay: tumor growth delay assay, Colon 36; format: in vivo, mouse (CD2F1 hybrid); parameters: key to Rating: Tx: Toxic; ++++: High Activity; +++: Marked Activity; ++: Moderate Activity; +: Slight Activity; -: Inactive; UT: Unsatisfactory Test; details: 9.5 mg/kg (dose of greatest activity), IP
Protocol: as §1, §2, §3, §4, §5, §6, §7

L1210 leukemia cells = assay: in vivo assay for antileukemic activity (median lifespan); parameters: species or system mouse (male CD2 F1); key to % T/C Animals (1): Tx = Toxic; details: IP once daily Days 3-7
Protocol: Another test protocol is the in vivo assay for antileukemic activity. This assay is carried out with male CD2 F1 mice (six per treatment group) that weigh 22-24 grams at first treatment. L1210 leukemia cells are harvested from the peritoneal ascites fluid of a leukemic male DBA2 mouse and diluted with sterile 0.9% saline containing 2.1% W/V bovine serum albumin, 2000 U/ml penicillin, and 0.3 mg/ml streptomycin. The cells are counted with a Coulter counter. The mice are randomized, inoculated with 10^4 L1210 cells (0.5 ml, IP), and rerandomized to treatment or control groups on Day 0. The test compound is dissolved in 10% aqueous dimethylsulfoxide. Treatment groups are injected IP with 0.5 ml of freshly made DMSO solutions of the test compound once daily on Days 3-7. Control mice are treated with 0.5 ml 10% dimethylsulfoxide. All mice are weighed on Days 3 and 7 and all dying mice are autopsied to confirm the presence of advanced leukemia. A % T/C value [T/C computed as (median lifespan of the treated group/median lifespan of the control group)] greater than 125 is considered as showing significant activity. The results for nucleotide compounds and compositions of the invention exemplified by 3'-acetyl-2-chloro-2'-deoxy-5'-adenylic acid, monosodium salt, are presented in Table I.

[2] = difference in days to reach 1000 mg

Row | water solubility (in words) (water solubility) | solubility (water solubility; in water) [mg/mL] | SMILES | antileukemic and immunosuppressive activity [1] | Rating (Colon 08) | T/C (Colon 08; [2]) | Net Kill (Colon 08; net logs of cell kill) | Rating (Colon 36) | T/C (Colon 36; [2]) | Net Kill (Colon 36; net logs of cell kill) | % T/C Animals (1) (L1210 leukemia cells; 48 mg/kg, >125 significant) [%] | % T/C Animals (2) (L1210 leukemia cells; 48 mg/kg, >125 significant) [%] | % T/C Animals (1) (L1210 leukemia cells; 77 mg/kg, >125 significant) [%] | % T/C Animals (2) (L1210 leukemia cells; 77 mg/kg, >125 significant) [%] | % T/C Animals (1) (L1210 leukemia cells; 124 mg/kg) | % T/C Animals (2) (L1210 leukemia cells; 124 mg/kg, >125 significant) [%] | % T/C Animals (1) (L1210 leukemia cells; 200 mg/kg)
1 | sparingly soluble in water | ~1 (≈ 3.5 mM) | Nc1nc(Cl)nc2c1ncn2[C@H]1C[C@H](O)[C@@H](CO)O1 [2-chloro-2'-deoxyadenosine] | antileukemic and immunosuppressive activity |  |  |  |  |  |  |  |  |  |  |  |  | 
2 |  |  | CC(=O)O[C@H]1C[C@H](n2cnc3c(N)nc(Cl)nc32)O[C@@H]1COP(=O)([O-])O.O.[Na+] [Example 1, 2-Chloro-2'-deoxy-5'-adenylic Acid, 3'-acetate, Monosodium Salt, Monohydrate] |  | + | 12.9 | 0.4 | ++ | 14.0 | 0.6 | 124 | 149 | 126 | 112 | Tx | 87 | Tx
